For one compound, EC50 results are on record in BindingDB's records for patent US9428501 (Astellas Pharma Inc, 2016).

The target in this assay is 5'-AMP-activated protein kinase catalytic subunit alpha-2 (Homo sapiens, UniProt P54646). Kind of assay: Activation Assay. The conditions noted are these: 37 °C. The method, then: After the incubation, 20 μl of a 40% glyoxal solution (Nacalai Tesque) was added to each well, and then cells were fixed by leaving to stand at room temperature for 30 minutes. Thereafter, the supernatant was removed by centrifuging the plate, and then 0.1% Triton X-100-containing Phosphate-Buffered Saline (PBS) was added to each well by 20 followed by incubating at room temperature for 10 minutes. […] The blocking solution was removed by centrifuging, with the exception of the blocking solution by centrifugation, and then a blocking solution which was diluted such that the amount of phosphorylation antibody (manufactured by Cell Signaling Technology, Inc) of ACC Ser79 as a primary antibody is 1/500 was added to each well by 10 followed by leaving to stand at 4° C. overnight. The following day, the reaction liquid was removed by centrifuging the plate, and then 0.05% Tween-20-containing Tris-Buffered Saline (TBS) (manufacture by Thermo Scientific Inc.; used in 1× in which 20×TBS Tween-20 was diluted with ion-exchange water) was added to each well by 25 followed by washing each well by centrifugal removal. The washing of each well was repeated for a total of 3 times. […]
5'-AMP-activated protein kinase catalytic subunit alpha-2, sequence (P54646 whole entry): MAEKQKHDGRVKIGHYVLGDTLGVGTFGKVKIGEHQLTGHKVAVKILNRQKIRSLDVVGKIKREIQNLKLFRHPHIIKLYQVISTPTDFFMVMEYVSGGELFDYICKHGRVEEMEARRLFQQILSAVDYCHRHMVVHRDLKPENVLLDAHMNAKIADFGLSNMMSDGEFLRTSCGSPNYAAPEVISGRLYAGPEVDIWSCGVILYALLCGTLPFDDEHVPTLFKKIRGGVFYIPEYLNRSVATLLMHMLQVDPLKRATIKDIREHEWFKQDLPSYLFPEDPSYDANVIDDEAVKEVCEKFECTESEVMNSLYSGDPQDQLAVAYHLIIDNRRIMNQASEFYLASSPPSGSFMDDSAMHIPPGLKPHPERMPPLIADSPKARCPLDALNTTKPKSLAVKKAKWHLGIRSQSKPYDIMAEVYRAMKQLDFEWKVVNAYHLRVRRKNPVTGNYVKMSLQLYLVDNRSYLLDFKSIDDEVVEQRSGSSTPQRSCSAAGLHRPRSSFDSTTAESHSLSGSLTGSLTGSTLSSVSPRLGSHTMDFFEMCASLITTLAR

Broadly, the EC50 is the concentration giving half of the maximal effect. The low end stands for higher potency in that assay, the high end for lower potency in that assay. The compound `CCOc1cnc(CN2CCC(c3ccc4cc(C(=O)N5CCN(Cc6ccc(C#N)cc6)CC5)n(C)c4c3)CC2)cn1` [US9428501, 69] came in with an EC50 of 1.8 nM.
